Molecules are shown by their SMILES.

One assay deals with T1, Recombinant human α-L-iduronidase protein (Homo sapiens, UniProt P35475).
T1 construct: purchased R&D
T1 sequence (P35475 28-653): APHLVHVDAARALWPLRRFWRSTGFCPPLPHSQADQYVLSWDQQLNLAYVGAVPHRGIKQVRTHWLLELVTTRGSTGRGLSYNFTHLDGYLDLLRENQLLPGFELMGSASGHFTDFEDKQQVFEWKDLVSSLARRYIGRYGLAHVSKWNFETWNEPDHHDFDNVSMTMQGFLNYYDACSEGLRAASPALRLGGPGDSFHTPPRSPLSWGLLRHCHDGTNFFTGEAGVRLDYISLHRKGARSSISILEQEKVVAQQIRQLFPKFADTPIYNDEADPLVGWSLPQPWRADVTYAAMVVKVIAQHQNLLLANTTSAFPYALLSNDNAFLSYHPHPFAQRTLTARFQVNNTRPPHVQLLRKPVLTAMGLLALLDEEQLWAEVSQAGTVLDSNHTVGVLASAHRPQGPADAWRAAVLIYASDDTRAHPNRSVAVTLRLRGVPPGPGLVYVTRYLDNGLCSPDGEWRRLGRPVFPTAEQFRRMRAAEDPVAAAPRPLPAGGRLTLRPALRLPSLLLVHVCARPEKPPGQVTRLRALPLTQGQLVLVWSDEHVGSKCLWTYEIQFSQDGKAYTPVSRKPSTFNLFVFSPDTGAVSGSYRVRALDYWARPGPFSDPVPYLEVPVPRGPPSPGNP
The assay is described as follows: Differential scanning fluorimetry (DSF) thermal stabilization.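 Note: Classes count stabilization of α-L-iduronidase despite the GALC label.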 It is filed as binding. The note with it: commercially available Examples 8-37; ΔTm class. On the procedure: The capacity of Compounds of the Disclosure to stabilize α-L-iduronidase was assessed by differential scanning fluorimetry technique. The thermal denaturation of purified human native enzyme was monitored in the presence of the extrinsic fluorescent probe SYPRO Orange (Sigma-Aldrich, St. Louis, MO). The tested compounds were dissolved in 100% DMSO and diluted into the protein buffer to achieve final concentrations of 1% DMSO.
Recombinant human α-L-iduronidase protein (purchased from R&D) 12.5 µL of 1.5 µM in 100 mM Hepes 20 mM MgCl2 pH 7 (protein final concentration 0.75 µM) with Sypro Orange 10X and 12.5 µl of the different compound solutions were dispensed into 96-well PCR-plates. The intensity of SYPRO Orange fluorescence after a systematic increase of temperature was monitored in the Roche LightCycler® 480 II device (Roche Diagnostics).
The capacity to stabilize α-L-iduronidase is denoted as follows: • ΔTm GALC > 1 is shown as A; • ΔTm GALC between 0.5 and 1 is shown as B; • ΔTm GALC between 0.1 and 0.5 is shown as C; and • ΔTm GALC less than 0.1 is shown as D.
Background: Differential scanning fluorimetry follows unfolding on heating by fluorescence.
On to `CCN(C(=O)CN(C)Cc1nc2ccccc2c(=O)[nH]1)c1cccc2ccccc12` [Example 28, N-ethyl-2-(methyl((4-oxo-3,4-dihydroquinazolin-2-yl)methyl)amino)-N-(naphthalen-1-yl)acetamide], for which the “DSF Activity range” value was “B (ΔTm GALC between 0.5 and 1 is shown as B)”. Same read-out and setting: under `CN(CC(=O)N1CCCc2ccccc21)Cc1nc2ccccc2c(=O)[nH]1` [Example 29, 2-(((2-(3,4-dihydroquinolin-1(2H)-yl)-2-oxoethyl)(methyl)amino)methyl)quinazolin-4(3H)-one] stands “B (ΔTm GALC between 0.5 and 1 is shown as B)”; under `CN(CC(=O)Nc1ccc(Cl)c(Cl)c1)Cc1nc2c(cnn2C)c(=O)[nH]1` [Example 30, N-(3,4-dichlorophenyl)-2-(methyl((1-methyl-4-oxo-4,5-dihydro-1H-pyrazolo[3,4-d]pyrimidin-6-yl)methyl)amino)acetamide], “B (ΔTm GALC between 0.5 and 1 is shown as B)”. Same read-out and setting: then `Cc1ccc(NC(=O)CN(C)Cc2nc3c(cnn3C)c(=O)[nH]2)cc1` [Example 31, 2-(methyl((1-methyl-4-oxo-4,5-dihydro-1H-pyrazolo[3,4-d]pyrimidin-6-yl)methyl)amino)-N-(p-tolyl)acetamide], with “C (ΔTm GALC between 0.1 and 0.5 is shown as C)”. Still for that read-out and setting: under `CN(CC(=O)Nc1cccc(F)c1)Cc1nc2c(cnn2C)c(=O)[nH]1` [Example 32, N-(3-fluorophenyl)-2-(methyl((1-methyl-4-oxo-4,5-dihydro-1H-pyrazolo[3,4-d]pyrimidin-6-yl)methyl)amino)acetamide] stands “D (ΔTm GALC less than 0.1 is shown as D)”; under `CN(CC(=O)Nc1ccccc1)Cc1nc2c(cnn2C)c(=O)[nH]1` [Example 33, 2-(methyl((1-methyl-4-oxo-4,5-dihydro-1H-pyrazolo[3,4-d]pyrimidin-6-yl)methyl)amino)-N-phenylacetamide], “C (ΔTm GALC between 0.1 and 0.5 is shown as C)”; under `COCCNC(=O)CN(C)Cc1nc2c(cnn2C)c(=O)[nH]1` [Example 34, N-(2-methoxyethyl)-2-(methyl((1-methyl-4-oxo-4,5-dihydro-1H-pyrazolo[3,4-d]pyrimidin-6-yl)methyl)amino)acetamide], “D (ΔTm GALC less than 0.1 is shown as D)”.

For `CN(CC(=O)N1CCCC1)Cc1nc2c(cnn2C)c(=O)[nH]1` [Example 35, 1-methyl-6-((methyl(2-oxo-2-(pyrrolidin-1-yl)ethyl)amino)methyl)-1,5-dihydro-4H-pyrazolo[3,4-d]pyrimidin-4-one], the “DSF Activity range” value was “B (ΔTm GALC between 0.5 and 1 is shown as B)”. Take `CN(CC(=O)N(C)C)Cc1nc2c(cnn2C)c(=O)[nH]1` [Example 36, N,N-dimethyl-2-(methyl((1-methyl-4-oxo-4,5-dihydro-1H-pyrazolo[3,4-d]pyrimidin-6-yl)methyl)amino)acetamide]: the “DSF Activity range” value was “B (ΔTm GALC between 0.5 and 1 is shown as B)”. The same measure, in the same setting: then `CN(CC(=O)N(C)C1CCCCC1)Cc1nc2c(cnn2C)c(=O)[nH]1` [Example 37, N-cyclohexyl-N-methyl-2-(methyl((1-methyl-4-oxo-4,5-dihydro-1H-pyrazolo[3,4-d]pyrimidin-6-yl)methyl)amino)acetamide], with “B (ΔTm GALC between 0.5 and 1 is shown as B)”.

The assay is the same for the next values; noted with them: synthetized Examples 38-94; ΔTm class.
On to `Cc1csc2c(=O)[nH]c(CN(C)CC(=O)N3Cc4ccccc4C3)nc12` [Example 38], for which the “DSF Activity range” value is “B (ΔTm GALC between 0.5 and 1 is shown as B)”.

`Cc1csc2c(=O)[nH]c(CN(C)CC(=O)N(C)c3ccccc3Cl)nc12` [Example 41]: the “DSF Activity range” value is “C (ΔTm GALC between 0.1 and 0.5 is shown as C)”. On the same count and under the same terms, under `CCN(CC(=O)N(C)c1ccccc1Cl)Cc1nc2c(C)csc2c(=O)[nH]1` [Example 42] stands “C (ΔTm GALC between 0.1 and 0.5 is shown as C)”; under `Cc1csc2c(=O)[nH]c(CN(CC(=O)N(C)c3ccccc3Cl)C3CC3)nc12` [Example 43], “D (ΔTm GALC less than 0.1 is shown as D)”.

On to `CCCN(CC(=O)N(C)c1ccccc1Cl)Cc1nc2c(C)csc2c(=O)[nH]1` [Example 44], for which the “DSF Activity range” value was “B (ΔTm GALC between 0.5 and 1 is shown as B)”. Same read-out and setting: then `Cc1cc2nc(CN(C)CC(=O)N(C)c3ccccc3Cl)[nH]c(=O)c2s1` [Example 45], with “B (ΔTm GALC between 0.5 and 1 is shown as B)”; and `CCN(CC(=O)N(C)c1ccccc1Cl)Cc1nc2cc(C)sc2c(=O)[nH]1` [Example 46], with “B (ΔTm GALC between 0.5 and 1 is shown as B)”. As to `Cc1cc2nc(CN(CC(=O)N(C)c3ccccc3Cl)C3CC3)[nH]c(=O)c2s1` [Example 47], the “DSF Activity range” value is given as “D (ΔTm GALC less than 0.1 is shown as D)”.

Consider `Cc1csc(N(C)C(=O)CN(C)Cc2nc3c(C)csc3c(=O)[nH]2)n1` [Example 48, N-methyl-2-(methyl((7-methyl-4-oxo-3,4-dihydrothieno[3,2-d]pyrimidin-2-yl)methyl)amino)-N-(4-methylthiazol-2-yl)acetamide], for which the “DSF Activity range” value was “C (ΔTm GALC between 0.1 and 0.5 is shown as C)”. As for `CCN(CC(=O)N(C)c1c(Cl)cccc1Cl)Cc1nc2c(C)csc2c(=O)[nH]1` [Example 49, N-(2,6-dichlorophenyl)-2-(ethyl((7-methyl-4-oxo-3,4-dihydrothieno[3,2-d]pyrimidin-2-yl)methyl)amino)-N-methylacetamide], the “DSF Activity range” value was “C (ΔTm GALC between 0.1 and 0.5 is shown as C)”.

`Cc1csc2c(=O)[nH]c(CN(C)CC(=O)N(C)c3cccc(F)c3)nc12` [Example 50]: the “DSF Activity range” value is “B (ΔTm GALC between 0.5 and 1 is shown as B)”. Same read-out and setting: then `Cc1cc2nc(CN(C)CC(=O)N(C)c3cccc(F)c3)[nH]c(=O)c2s1` [Example 51], with “C (ΔTm GALC between 0.1 and 0.5 is shown as C)”; and `Cc1cc2nc(CN(C)CC(=O)N3CCc4ccccc43)[nH]c(=O)c2s1` [Example 52], with “B (ΔTm GALC between 0.5 and 1 is shown as B)”; and `Cc1cc2nc(CN(C)CC(=O)N3Cc4ccccc4C3)[nH]c(=O)c2s1` [Example 53], with “B (ΔTm GALC between 0.5 and 1 is shown as B)”. Take `Cc1cc2nc(CN(C)CC(=O)N(C)c3ccc(Cl)c(Cl)c3)[nH]c(=O)c2s1` [Example 55, N-(3,4-dichlorophenyl)-N-methyl-2-(methyl((6-methyl-4-oxo-3,4-dihydrothieno[3,2-d]pyrimidin-2-yl)methyl)amino)acetamide]: the “DSF Activity range” value was “C (ΔTm GALC between 0.1 and 0.5 is shown as C)”.

For `CN(CC(=O)N1Cc2ccccc2C1)Cc1nc2ccc(F)cc2c(=O)[nH]1` [Example 56, 6-fluoro-2-(((2-(isoindolin-2-yl)-2-oxoethyl)(methyl)amino)methyl)quinazolin-4(3H)-one], the “DSF Activity range” value is on record as “A (ΔTm GALC > 1 is shown as A)”.

Regarding `CN(CC(=O)N1CCc2ccccc21)Cc1nc2ccc(F)cc2c(=O)[nH]1` [Example 57, 6-fluoro-2-(((2-(indolin-1-yl)-2-oxoethyl)(methyl)amino)methyl)quinazolin-4(3H)-one], the “DSF Activity range” value was “B (ΔTm GALC between 0.5 and 1 is shown as B)”. Still for that read-out and setting: under `CN(CC(=O)N(C)c1ccc(Cl)c(Cl)c1)Cc1nc2ccc(F)cc2c(=O)[nH]1` [Example 58, N-(3,4-dichlorophenyl)-2-(((6-fluoro-4-oxo-3,4-dihydroquinazolin-2-yl)methyl)(methyl)amino)-N-methylacetamide] stands “B (ΔTm GALC between 0.5 and 1 is shown as B)”; under `CN(CC(=O)N(C)c1ccccc1Cl)Cc1nc2ccc(F)cc2c(=O)[nH]1` [Example 59], “B (ΔTm GALC between 0.5 and 1 is shown as B)”. As for `CCN(CC(=O)N(C)c1ccccc1Cl)Cc1nc2ccc(F)cc2c(=O)[nH]1` [Example 60], the “DSF Activity range” value is “B (ΔTm GALC between 0.5 and 1 is shown as B)”. On the same count and under the same terms, then `CN(C(=O)CN(Cc1nc2ccc(F)cc2c(=O)[nH]1)C1CC1)c1ccccc1Cl` [Example 61], with “D (ΔTm GALC less than 0.1 is shown as D)”; and `CCCN(CC(=O)N(C)c1ccccc1Cl)Cc1nc2ccc(F)cc2c(=O)[nH]1` [Example 62], with “B (ΔTm GALC between 0.5 and 1 is shown as B)”; and `CN(CC(=O)N(C)c1ccccc1Cl)Cc1nc2cc(F)ccc2c(=O)[nH]1` [Example 63], with “B (ΔTm GALC between 0.5 and 1 is shown as B)”. On the same count and under the same terms, then `CCN(CC(=O)N(C)c1ccccc1Cl)Cc1nc2cc(F)ccc2c(=O)[nH]1.Cl` [Example 64], with “B (ΔTm GALC between 0.5 and 1 is shown as B)”.

The values above are taken from patent US20230140216A1, “COMBINATION THERAPY FOR TREATING MPS1” (GAIN THERAPEUTICS SA, priority 2020, published 2023).
